# Like-named read-outs stand apart in the source and are kept apart here.
# Assays:
# HSV-1 [1] = assay: Direct inactivation, attachment and penetration of HSV-1; assay type: cell-based, Herpes Simplex Virus-Type 1
# Description: To determine whether Tolan-3 directly inactivated the virus, Tolan-3 was incubated with HSV-1 at room temperature for 1, 30 or 60 minutes while controls were also incubated with HSV-1 at room temperature without Tolan-3. The treated or control virus was plated onto Vero cells.
# Mushroom tyrosinase = assay: Inhibition of mushroom tyrosinase activity; assay type: biochemical; conditions: concentration not given
# Description: All chemical used for reagents were purchased from Sigma Chemical Company. KST201 at each tested concentration (1000, 250 and 100 μM) was dissolved in 10% ethanol from a master mixture of the drug prepared at 0.1M in 100% ethanol.
# Mushroom tyrosinase (Sigma) was diluted in 50 mM phosphate buffer, pH 6.5 to yield a concentration of 16 U/μl. […] A master mix containing 0.5 mM L-DOPA [3,4-dihydroxy-1-phenylalanine], 10 mM Sodium L-tyrosine in 50 mM phosphate buffer, pH 6.5 was prepared. The KST-201 dilutions were preincubated with the enzyme for 20 minutes. The samples were pipetted into 24 well plates and the master mixture added quickly. The reaction was read using a kinetic format in which wells were read every 30 seconds over a course of 10 minutes at a wavelength of 475 nm using a Synergy HT Plate reader. A kinetic curve was generated for each sample compared to a total reaction with mushroom tyrosinase without a drug (total).
# prostate cancer = assay: Prostate cancer patients (Example VIII A); assay type: in vivo, human; conditions: daily 10 μg to 5 mg/Kg; no significant differences between the four groups
# Description: A group of 40 men aged 55-75 suffering from prostate cancer receive a daily dosage of between 10 μg and 5 mg/Kg body weight of KST-201, KST-213, KST-301 or KST-401 (10 patients per compound). Examination of the patients by clinical, radiographic and histopathological tests show significant shrinkage in tumors, and signs of cell death in 38% of the patients; there are no significant differences between the four treatment groups.
# breast cancer = assay: Breast cancer prevention, skin patch (Example VIII C); assay type: in vivo, human; conditions: transdermal patch 10 mg to 100 mg daily, one-year study
# Description: This study investigates whether KST-201, KST-213, KST-301 and KST-401 administered transdermally each day through a skin patch aid in preventing breast cancer or metastatic cancer following cancer therapy. Patches are prepared with a lipophilic carrier which is readily absorbed through the skin (glycerol cold cream containing glycerin and peanut oil). The HT compound is mixed with the lipophilic cream such that each patch comprises 10 mg to 100 mg of active compound. The patch is applied to the skin each day, and rapid absorption occurs. After two hours, the patch is removed.
# colon cancer = assay: Colon cancer patients (Example VIII E); assay type: in vivo, human
# Description: Eight patients suffering from advanced colon cancer are treated daily for three weeks with an intravenous infusion of 2 g of the compounds KST-201, KST-213, KST-301 or KST-401 dissolved in saline. Two patients are assigned to each compound. The compounds are dissolved in sterile saline. […] Progression of the tumor is also arrested over the treatment period.
# Another eight patients with terminal colon cancer are treated by daily bolus injections (intravenous or intramuscular) of 2 g of KST-201, KST-213, KST-301 or KST-401.
# Vero cells = assay: Cytotoxicity (CD50) on Vero cells; assay type: cell-based; conditions: 48 hours of exposure
# Description: See Example II for tumor cell cytotoxicity of these compounds. […] NAB group 32 contains two compounds, Tolan-2 (also designated herein as KST-201) and Stil-2. Based on the NAB, they were classified as topological isomers. However, chemically they differ because Stil-2, a […], contained a double bonded linker, while Tolan-2 contained a triple bonded linker. The cytotoxicity of the two molecules on Vero cells differed markedly: Tolan-2 was less toxic than Stil-2.
# bladder cancer = assay: Bladder cancer patients (Example VIII B); assay type: in vivo, human; conditions: intravenous 10 μg to 5 mg/kg over three months
# Description: A group of 20 men and 20 women aged 50-75 with bladder cancer are treated by intravenous injection of between 10 μg and 5 mg/kg of KST-201, KST-213, KST-301 or KST-401. Each compound is given to a group of 5 men and 5 women) over a period of three months. Clinical, radiographic and histopathological tests show significant remission in 35% of patients, accompanied by signs of cell death in 45%. There are no significant differences between the results with the four compounds.
# ovarian cancer = assay: Ovarian cancer patients (Example VIII D); assay type: in vivo, human; conditions: daily gelatin capsule 200 mg
# Description: A study is carried out in a group of 40 women with ovarian cancer of various grades to determine the effect of treatment with compounds of KST-201, KST-213, KST-301 and KST-401. The administration protocol involves daily administration of a gelatin capsule containing 200 mg of active compound.
# HSV-1 [2] = test system: HSV-1
# Description: FIG. 2. […] A 10% w/v solution of KST-301 in DMSO was applied topically to the epidermal infection site 3×/day for 5 days. Controls animals received the same volume of the DMSO vehicle at the same intervals. Lesions were scored as 0=no visible lesions, +1=papules around the infection site, +2=papules are ulcerated around the infection site with eschar formation, +3=ulcerated zosteriform spread along peripheral nerves to the flank of the animal, +4=ulcerated lesions open on the flank, and +5=death of the animal.
# The lesions were scored as in the description for FIG. 2.
# HSV-1 [3] = assay: HSV-1 replication in infected Vero cells (plaque assay); assay type: cell-based, Herpes Simplex Virus-Type 1
# Description: For this purpose HSV-1 replication at 24, 48 and 72 h was examined in the presence or absence of varying concentrations of the polyphenol.
# The SI is the ratio of the CD50 divided by a selected inhibitory concentration (IC %).
# Viral inhibition by Tolan-3 appeared to occur after viral entry into cells. […] Subsequently, the compound was removed and replaced with culture medium alone, and the incubated continued for 48 or 72 more hrs. In a second experiment, HSV-1 infected Vero cells were incubated with 350 μM Tolan-3 for 48 h. Thereafter, the Tolan-3 was removed and replaced by medium and the incubation continued for an additional 24 h. Viral titers were calculated by a standard plaque assay.
# terminal cancer = conditions: cited from earlier work
# MDAH2274 = assay: MTT cytotoxicity, MDAH2274 ovarian cancer cells; assay type: cell-based, human; conditions: Homo sapiens
# Description: (§1) As a first step, the antitumor activity of the tolans was assessed against a panel of three cancer cells lines that produce solid tumors upon implantation into animals. DU145 is an androgen-independent prostate cancer cells. T24 is a transitional cell bladder carcinoma cell. MDAH2274 (“MDAH) is an endometroid ovarian adenocarcinoma cell. To assess the selectivity of this antitumor activity, the toxicity of the tolans to normal human fibroblasts (MHRF) was examined.
# (§2) Cell killing was evaluated using the colorimetric MTT assay. The assay measures the formation of a colored product from a chromogenic precursor, the tetrazole 3-[4,5-dimethylthiazol-2-yl]-2,5 diphenyltetrazolium bromide (MTT). The yellow MTT is reduced to purple formazan in the mitochondria of living cells. A solubilization solution (typically dimethyl sulfoxide or sodium dodecyl sulfate in dilute hydrochloric acid) is added to dissolve the insoluble purple formazan product into a colored solution. The absorbance of this colored solution is quantified by measuring at a certain wavelength (usually between 500 and 600 nm) by a spectrophotometer. […] This MTT assay is used widely to assess the cytotoxicity and selectivity of compounds such as anti-cancer drugs. The assay is suitable for rapid toxicity characterization of a test agent such as a drug formulation. […] A lower CD50 indicates a greater cytotoxic activity (as a lower amount of the agent is needed to achieve a fixed level of cytotoxicity). Two agents can be compared by examining the fold-increase or decrease in their CD50 values.
# T24 = assay: MTT cytotoxicity, T24 bladder cancer cells; assay type: cell-based, human; conditions: Homo sapiens, VC:KST-201 200:1, read-out: CD50 (μM) of each Compound tested in combination, T24
# Description: as §1
# as §2, with “values. […]” for “values.”
# advanced cancer = conditions: 10 g oral VC, randomized placebo-controlled trials; cited from earlier work
# [4] = mice; 6.5 g/Kg daily for 6 weeks and 2 g/Kg for 2 years; cited from earlier work
# [5] = intravenous infusion 2 g daily for three weeks
compound,measurement,setting,value
"Oc1ccc(C#Cc2cc(O)cc(O)c2)cc1 [KST-301, 3,4′,5-trihydroxytolan]",Inhibition of HSV-1 attachment or penetration,HSV-1 [1],did not inhibit HSV-1 attachment or penetration
same,Direct inactivation of HSV-1,"HSV-1 [1]; incubated with HSV-1 at room temperature 1, 30 or 60 minutes",did not directly inactivate HSV-1
same,% inhibition of mushroom tyrosinase activity,Mushroom tyrosinase,40.1±9.9%
same,"Patients with significant shrinkage in tumors, and signs of cell death",prostate cancer,38%
same,Breast cancer or metastatic cancer in high-risk group,breast cancer,does not show any evidence of breast cancer or other metastatic cancer
same,Dissemination of the tumors,colon cancer; daily bolus injections (intravenous or intramuscular) of 2 g,dissemination of the tumors is diminished
same,Cancer marker carcinoembryonic antigen (CEA),colon cancer; [5],significant reduction
same,Progression of the tumor,colon cancer; [5],arrested
same,CD50,Vero cells,350 µM
same,Log CD50,Vero cells,2.54
same,Patients with signs of cell death,bladder cancer,45%
same,Patients with significant remission,bladder cancer; no differences between compounds,35%
same,"Rate of production of ovarian cancer markers (Muc-1, Sp17)",ovarian cancer,significant decrease
same,Tumor growth during study period,ovarian cancer,Tumors regress or show no further growth
same,Number and severity of HSV lesions,"HSV-1 [2]; 5% w/v solution, topical, hairless mice",significantly reduced the number and severity of HSV lesions
same,Severity of HSV-1 lesions,"HSV-1 [2]; 10% w/v solution in DMSO, topical 3×/day for 5 days, hairless mice",significantly reduced
same,Treated animals in which lesion formation was prevented,HSV-1 [2]; topical solution in DMSO,67%
same,Treated animals showing evidence of HSV infection,"HSV-1 [2]; topical solution in DMSO, controls 83-100%",33%
same,Maximum (average) lesion score,"HSV-1 [2]; topical solution in DMSO, scale 0 to +5, controls 3.8-4 by days 8 and 9",0.8-1.2
same,"Dermal toxicity (erythema, scaling, crusting, lichenification, excoriation)","HSV-1 [2]; topical, hairless mice",no apparent dermal toxicity
same,Reversibility of HSV-1 inhibition after removal of compound,"HSV-1 [3]; 350 μM, removed as late as 48 hours post infection",HSV-1 replication recovered
same,"SI50 (selectivity index, CD50 divided by IC50)",HSV-1 [3]; 48 h post-infection,> 63
same,IC50,"HSV-1 [3]; Human alphaherpesvirus 1, Vero, read-out: IC50, concentration at which 50% of HSV-1 replication was inhibited, viral assays at lower compound concentrations",6.37 µM
same,Effect on HSV-1 viral replication in Vero cells (in words),"HSV-1 [3]; at CD50, 75% and 50% of CD50, 24, 48, 72 h",significant anti-HSV activity
"O=C1O[C@H]([C@@H](O)CO)C([O-])=C1O.[Na+] [VC, sodium ascorbate, reference compound]",Mean survival time (MST),"terminal cancer; 100 terminal cancer patients, 10 g/day i.v. 10 days then oral, controls 50 days",> 210 days
same,"MST, times greater than that of the controls",terminal cancer; 100 terminal cancer patients,more than 4.2 times
same,MST of subjects with ovarian cancer,"terminal cancer; six ovarian cancer subjects, controls 71 days",148 days
same,IC50,"MDAH2274; 24 h, MTT, 1 day incubation, read-out: CD50 against MDAH, compound tested individually",937 µM
same,IC50,"MDAH2274; 24 h, VC:KST-201 400:1, 1 day, read-out: CD50 (μM) of each Compound tested in combination, MDAH 2274",466 µM
same,IC50,"MDAH2274; 48 h, MTT, 2 days incubation, read-out: CD50 against MDAH, compound tested individually",900 ± 46.7 µM
same,IC50,"MDAH2274; 48 h, VC:KST-201 400:1, 2 days, read-out: CD50 (μM) of each Compound tested in combination, MDAH 2274",389 ± 9.6 µM
same,IC50,"MDAH2274; 72 h, MTT, 3 days incubation, read-out: CD50 against MDAH, compound tested individually",879 µM
same,IC50,"MDAH2274; 72 h, VC:KST-201 400:1, 3 days, read-out: CD50 (μM) of each Compound tested in combination, MDAH 2274",393 µM
same,IC50,"T24; T-24, 24 h, 1 day",638 µM
same,IC50,"T24; T-24, 48 h, 2 days",634 µM
same,Benefit of oral VC treatment,advanced cancer,no benefits of oral VC treatment
same,"Mortality, weight changes, blood chemistry, hematology, histology, other pathologies",[4],no abnormal rates of mortality

# Source: patent publication US8716355B2, “Hydroxylated tolans and related compounds in the treatment of a cancer” (Kent State University, priority 2007, dated 2014)
